System: INA-6 cells
Assay: μCT analysis of murine femurs after treatment of INA-6-engrafted mice with anti-myeloma drugs
Type: in vivo, mouse
Conditions: Rag2−/−Il2rgnullIl6h/hhSIRPa+ mice engrafted with 5×10^5 intrafemorally injected INA-6 cells, treated biweekly, femurs analyzed after four weeks, compared to untreated mice
From the text: FIG. 7 is a graph depicting the results of μCT analysis of murine femurs after treatment with anti-myeloma drugs. Rag2^−/−Il2rg^nullIl6^h/hhSIRPa+ were engrafted with 5×10^5 intrafemorally injected INA-6 cells and treated biweekly with Velcade® or Zometa®, respectively. After four weeks, mice were sacrificed and femurs were fixed in 70% ethanol for μCT analysis. Trabecular bone and tissue volumes were quantified to calculate the ratio between bone to tissue volume.
Transplantation of cells. For intrafemoral transplantation of INA6 cells, Rag2^−/−Il2rg^null Il6^h/hhSIRPa^+ mice were irradiated twice with 200 rad from an X-ray source.
Indicated amounts of cells were then transplanted into the femur of recipient mice. Briefly, mice were anaesthetized using Ketamine/Xylazine and a hole was drilled into the patellar surface of the femur using a 26 gauge needle. The cells were then slowly injected in a volume of 20 μl using a 27 gauge needle. […]
μCT. Femur morphometry was quantified using cone-beam microfocus x-ray computed tomography (μCT40; ScancoMedicalAG). […]
Therefore, it was next examined whether transplantation of the tumor cell line in its natural microenvironment is able to reproduce the pathology typically associated with human MM. […] Specifically, the loss of trabecular bone mass was observed by histology, which was quantified by μCT. […]

O=P(O)(O)C(O)(Cn1ccnc1)P(=O)(O)O [Zometa]
bone resorption as quantified by μCT (ratio between bone to tissue volume): able to reduce bone resorption

From patent US11778995B2, “Genetically modified non-human animals and methods of use thereof” (Regeneron Pharmaceuticals, Inc., priority 2012, dated 2023)
